{
  "source": "patent US20240166630A1",
  "about": "“INDOLE DERIVATIVES AS SEROTONERGIC AGENTS USEFUL FOR THE TREATMENT OF DISORDERS RELATED THERETO” (Mindset Pharma Inc., priority 2021, published 2024)",
  "key": {"[1]": {"target": "T1, human 5-HT2A (h5-HT2A) receptor (Homo sapiens, UniProt P28223)", "T1 construct": "expressed in transfected cells; kept under G418 and hygromycin B selection", "T1 sequence (P28223 whole entry)": "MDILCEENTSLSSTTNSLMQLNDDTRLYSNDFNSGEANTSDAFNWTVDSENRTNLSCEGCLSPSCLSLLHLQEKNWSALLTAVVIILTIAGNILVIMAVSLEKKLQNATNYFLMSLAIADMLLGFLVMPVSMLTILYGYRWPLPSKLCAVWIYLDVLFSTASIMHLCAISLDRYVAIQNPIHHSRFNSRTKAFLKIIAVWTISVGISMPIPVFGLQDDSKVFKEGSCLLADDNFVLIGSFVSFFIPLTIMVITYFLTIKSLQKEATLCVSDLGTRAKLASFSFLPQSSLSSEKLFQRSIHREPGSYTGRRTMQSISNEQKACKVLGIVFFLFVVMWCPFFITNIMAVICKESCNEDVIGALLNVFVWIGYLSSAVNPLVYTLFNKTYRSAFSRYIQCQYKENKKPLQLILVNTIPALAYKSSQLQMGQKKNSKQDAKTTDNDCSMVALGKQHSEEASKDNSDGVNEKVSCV", "experiment": "FLIPR assay, human 5-HT2A receptor under agonist mode", "format": "cell-based", "description": "I. Assessment of the Activated Effect of Compounds of Formula I-B Targeting on Human 5-HT2A (h5-HT2A) Receptor Under Agonist Mode:\n1. The cells were cultured in cell culture medium (DMEM containing 10% FBS, 1× penicillin-streptomycin 300 μg/ml G418 and 100 μg/ml hygromycin B) at 37° C., 5% (v/v) CO2.\n2. One day before the assays, the cells were detached using TrypLE™ Express and count cells using cell counter.\n3. 20000 cells/well were seeded in 30 μl/well culture medium to a 384-well cell plate and incubated the cells overnight at 37° C., 5% (v/v) CO2.\n4. On the assay day, 2×dye solution was prepared following the manual of the FLIPR® Calcium 6 Assay Kit: i. The dye was diluted with assay buffer (20 mM HEPES in 1×HBSS, PH7.4); ii. probenecid was added to the final concentration of 5 mM; iii. Vortexed vigorously for 1-2 minutes.\n5. Medium was removed from cell plate by flicking the cell plate on towel papers.\n7. The cell plate was placed on plate shaker, the plate agitated at 600 rpm for 2 minutes. The plate was incubated at 37° C. for 2 hours followed by additional 15-minute incubation at 25° C.\n8. 3×compound was prepared in assay buffer: a. Reference compounds were diluted to required concentration with DMSO. The compounds were added to a 384-well compound plate; b. Serial dilutions were performed; c. 10 mM test compounds were added to the compound plate, 3-fold serial dilutions were performed. […] 20 μl/well assay buffer was added to the compound plate; f.\n9. The cell plate, compound plate and tips were placed into FLIPR, 10 μl of 3× compound was transferred to the cell plate per well with FLIPR.\ni. The normalized fluorescence reading (RFU) was calculated as shown follow, while Fmax and Fmin stand for maximum and minimum of calcium signal during defined time window: RFU=Fmax−Fmin\nii. The percentage activation was calculated by using following equation: […]\niii. EC50 was calculated by fitting % activation against log of compound concentrations with Hill equation using Xlfit."}, "[2]": {"experiment": "Liver microsomes stability with NADPH, mouse", "description": "The objective of this study was to estimate in vitro metabolic stability of representative compounds of the application in pooled human and male mouse liver microsomes. The concentrations of parent compounds in reaction systems were evaluated by LC-MS/MS for estimating the stability in pooled human and male mouse liver microsomes. The in vitro intrinsic clearances of test compounds were determined as well.\nA master solution in the “Incubation Plate” containing phosphate buffer, ultra-pure H2O, MgCl2 solution and liver microsomes was made according to Table 3. The mixture was pre-warmed at 37° C. water bath for 5 minutes.\n40 μL of 10 mM NADPH solution was added to each well. The final concentration of NADPH was 1 mM. The negative control samples were prepared by replacing NADPH with 40 μL of ultra-pure H2O. Samples were prepared in duplicate. Negative controls were prepared in singlet.\nThe reaction was started with the addition of 4 μL of 200 μM test compounds or control compounds to each master solution to get the final concentration of 2 μM. This study was performed in duplicate.\nAliquots of 50 μL were taken from the reaction solution at 0, 15, 30, 45 and 60 minutes. The reaction solutions were stopped by the addition of 4 volumes of cold methanol with IS (100 nM alprazolam, 200 nM imipramine, 200 nM labetalol and 2 μM ketoprofen). Samples were centrifuged at 3,220 g for 40 minutes. Aliquot of 90 μL of the supernatant was mixed with 90 μL of ultra-pure H2O and then was used for LC-MS/MS analysis.\nLC/MS analysis was performed for all samples from this study using a Shimadzu liquid chromatograph separation system equipped with degasser DGU-20A5R; solvent delivery unit LC-30AD; system controller SIL-30AC; column oven CTO-30A; CTC Analytics HTC PAL System; Mass spectrometric analysis was performed using an Triple Quad™ 5500 instrument.\nAll calculations were carried out using Microsoft Excel. Peak area ratios of test compound to internal standard (listed in the below table) were determined from extracted ion chromatograms.\nAll calculations were carried out using Microsoft Excel. Peak areas were determined from extracted ion chromatograms. The slope value, k, was determined by linear regression of the natural logarithm of the remaining percentage of the parent drug vs. incubation time curve.\nThe in vitro half-life (in vitro t1/2) was determined from the slope value:\nConversion of the in vitro t1/2 (min) into the in vitro intrinsic clearance (in vitro CLint, in μL/min/mg proteins) was done using the following equation (mean of duplicate determinations): […]"}},
  "data": [
    {"smiles": "[2H]C([2H])(c1c[nH]c2ccccc12)[C@H]1CCCN1C([2H])([2H])[2H]", "note": "[I-B-1, (R)-3-((1-(methyl-d3)pyrrolidin-2-yl)methyl-d2)-1H-indole]", "values": [
      {"measurement": "EC50", "setting": "[1]", "result": "100 to 1000", "unit": "nM"},
      {"measurement": "half-life at 2 μM", "setting": "[2]; male, mouse, microsomes", "result": 1.16, "unit": "h"},
      {"measurement": "microsomal CLint at 2 μM", "setting": "[2]; male, mouse, microsomes", "result": 19.9, "unit": "µL/min/mg"},
      {"measurement": "Remaining Percentage (%) after 60 min Mouse", "setting": "[2]; mouse liver microsomes, with NADPH, 2 μM", "result": 55.00, "unit": "%"}
    ]}
  ]
}
